Source: patent publication US20070112068A1, “Nitrile compound and its use in pest control” (priority 2003, published 2007)

Key:
Format in all cases: in vivo
[1] = system: Haemaphysalis longicornis; test: Experimental Example 7: treated polypropylene film pouch, Haemaphysalis longicornis; conditions: 0.22 ml of 0.25% (w/v) methanol solution on film; 10 young mites; after 48 hours
Method: A 0.25% (w/v) solution of the present compound (31) in methanol was prepared. Onto one side of a polypropylene film having 5.7 cm (height)×16.5 cm (width), 0.22 ml of the solution was added dropwise uniformly (except for 5 mm width from the edges of the film) and then air-dried. Thereafter, the film was folded in half widthwise in a way that the side containing the present compound became the inner face of the folded film. Then, the two longer sides (5 mm width each) of the folded film were heat-sealed to obtain a pouch. 10 young mites of Haemaphysalis longicornis were put into the polypropylene film pouch. The opening part of the polypropylene film pouch was closed with a clip. After 48 hours, the number of surviving Haemaphysalis longicornis was examined and the death rate of the pest was calculated.

[2] = system: Culex pipiens pallens; test: Experimental Example 10: treated filter paper in Peet-Grady chamber, Culex pipiens pallens; conditions: 5 ml of 1% (w/v) acetone solution on filter paper; 1.8 m Peet-Grady chamber; female imagoes; 1 hour exposure, 24 hours later
Method: A 1% (w/v) solution of the present compound (31) in acetone was prepared. Onto a filter paper with 10 cm×25 cm, 5 ml of the solution was added dropwise uniformly and then air-dried. This filter paper was suspended from the center of the ceiling center of a Peet-Grady chamber with 1.8 m (width)×1.8 m (depth)×1.8 m (height) and therein about 50 female imagoes of Culex pipiens pallens were released. After 1 hour, all test pests were collected, put into a plastic cup together with absorbent cotton impregnated with 5% sugar water, and then left at 25° C. After 24 hours, the number of surviving Culex pipiens pallens was examined and the death rate was calculated.

[3] = system: Formica fusca japonica; test: Experimental Example 20: poison bait, Formica fusca japonica; conditions: poison bait: 1 ml of 0.1% by weight acetone solution per 1 g unrefined sugar; 0.5 g bait; after 48 hours
Method: 1 ml of a 0.1% by weight solution of the present compound (31) in acetone was added dropwise to 1 g of a commercially available powdery unrefined sugar, mixed thoroughly and then air-dried to obtain a poison bait. A cotton ball impregnated with water and 0.5 g of the poison bait on an aluminum dish were placed in a plastic cup (860 mL) containing 10 imagoes of Formica fusca japonica. After 48 hours, the number of surviving Formica fusca japonica was examined and the death rate of the pest was calculated.

[4] = system: Formica fusca japonica; test: Experimental Example 23: treated filter paper on cup lid, Formica fusca japonica; conditions: 0.1 ml of 5% (w/v) acetone solution on filter paper on lid; after 7 days
Method: A 5% (w/v) solution of the present compound (31) in acetone is prepared. 0.1 ml of the solution is added dropwise to a filter paper with 2 cm×2 cm and then air-dried. 10 imagoes of Formica fusca japonica are released in a plastic cup having a diameter of 12.5 cm and a height of 8 cm. After feed and water are placed therein, the cup is closed with a lid. The aforementioned pesticide-treated filter paper is attached to the inner surface of the lid. In addition, the inside wall of the cup is coated with talc for preventing the climbing of ants. This cup is kept at 25° C.

[5] = system: Culex pipiens pallens; test: Experimental Example 25: electric mosquito mat, Culex pipiens pallens; conditions: electric mosquito mat (Formulation Example 18); 20 minutes exposure, after 24 hours
Method: An electric mosquito mat of the present compound (31) prepared according to Formulation Example 18 is set on a heater for an electric mosquito mat and then placed on the centre of the floor of a chamber having 70 cm (width)×70 cm (depth)×70 cm (height). After the electric mosquito mat is initiated to be heated with the heater, about 20 female imagoes of Culex pipiens pallens are released in the chamber. After 20 minutes, all test pests are collected, placed in a plastic cup together with absorbent cotton impregnated with 5% sugar water, and left at 25° C.

## N#CC(C#N)(CCC(F)(F)F)CC(F)(F)C(F)(F)C(F)(F)C(F)F [(31)]
[1]
  death rate of the pest: 100%
[2]
  death rate of the pest: 86%
[3]
  death rate of Formica fusca japonica: 100%
[4]
  pesticidal effect: pesticidal effect on Formica fusca japonica is confirmed
[5]
  pesticidal effect: pesticidal effect on Culex pipiens pallens is confirmed
